Data reported in US11364209B2, “Methods and compositions for treating atopic dermatitis” (Golden Biotechnology Corporation, priority 2016, dated 2022).

Assays:
[1] = Outside-in animal model (OVA-sensitized mice): body weight and clinical signs; type: in vivo; settings: oral doses
Procedure: BALC/c female rat in 6-8-week old is used. Each group has 6-8 rats. Blood sample was taken from the cheek of rat before sensitization. On day 1 and day 8, mice were injected intraperitoneally with 50 μg/mice of OVA-aluminum hydroxide (1:1 v/v). The mice were epicutaneously sensitized with OVA patches on day 15. OVA (100 μg) prepared in PBS was contained in a 2×2-cm patch of sterile gauze that was placed on the shaved backs of mice and secured to the skin with 3 M Tegader film followed by 3 M Coban tape to secure the gauze. After 3 days, the gauze was removed and reapplied. The procedure was repeated three times. Day 27, all the mice in the study was sacrificed and examined.
days 1 and 8 were injected OVA (sensitization), day 15 applied OVA gauze for 3 days (challenge) and rested one day. The application of OVA gauze procedure was repeated 3 times. Starting on day 14, the mice in the group were fed water.
Same procedure as group O except the mice were fed low dose (5 mg/kg BW) of exemplary compound 1.
Same procedure as group O except the mice were fed medium dose (15 mg/kg BW) of exemplary compound 1.
Same procedure as group O except the mice were fed high dose (45 mg/kg BW) of exemplary compound 1.

[2] = Metabolite obtained from urine of rats fed with Compound 1; type: in vivo; settings: urine samples of rats fed with Compound 1
Procedure: Compound 27 was determined to be 4-hydroxy-2,3-dimethoxy-6-methyl-5-(3-methyl-2-hexenoic acid)cyclohex-2-enone with molecular weight of 312 (C16 H24O6). Compound 25 which was determined as 2,3-dimethoxy-5-methyl-6-((2E,6E)-3,7,11-trimethyldodeca-2,6,10-trienyl)cyclohexa-2,5-diene-1,4-dione (molecular weight of 386.52, C24 H34 O4), was obtained from the purification process.

[3] = all treatment groups, through the study period

Structure (SMILES)	body weight change between all treatment groups ([1]; FIG. 1)	loss in body weight [1, 3]	observed clinical signs [1, 3]	metabolite found in urine [2]
COC1=C(OC)C(O)C(C/C=C(\C)CC/C=C(\C)CCC=C(C)C)C(C)C1=O (stereo not shown) [Compound 1, 4-hydroxy-2,3-dimethoxy-6-methyl-5-(3,7,11-trimethyldodeca-2,6,10-trienyl)cyclohex-2-enone]	no significant difference	did not lead to any loss in body weight	did not lead to any loss in body weight or any observed clinical signs	–
COC1=C(OC)C(O)C(C/C=C(\C)CCC(=O)O)C(C)C1=O (stereo not shown) [Compound 27]	–	–	–	a metabolite of compound 1
